The record followed here is article PMC6479915, “Novel Benzene-Based Carbamates for AChE/BChE Inhibition: Synthesis and Ligand/Structure-Oriented SAR Study” (International Journal of Molecular Sciences, 2019).

The target in one assay is T1, AChE from electric eel (Electrophorus electricus, UniProt O42275).
T1 construct: purchased Sigma, St. Louis, MO, USA
Description: biochemical. Conditions: mean ± SD, n = three experiments; 25 °C, PBS pH 7.4, substrate ATCh 40 μM.

In another assay the target is T2, BChE from equine serum (Equus caballus, UniProt P81908).
T2 construct: BChE (from equine serum); purchased Sigma, St. Louis, MO, USA; host or cells: equine serum
T2 sequence (P81908 whole entry): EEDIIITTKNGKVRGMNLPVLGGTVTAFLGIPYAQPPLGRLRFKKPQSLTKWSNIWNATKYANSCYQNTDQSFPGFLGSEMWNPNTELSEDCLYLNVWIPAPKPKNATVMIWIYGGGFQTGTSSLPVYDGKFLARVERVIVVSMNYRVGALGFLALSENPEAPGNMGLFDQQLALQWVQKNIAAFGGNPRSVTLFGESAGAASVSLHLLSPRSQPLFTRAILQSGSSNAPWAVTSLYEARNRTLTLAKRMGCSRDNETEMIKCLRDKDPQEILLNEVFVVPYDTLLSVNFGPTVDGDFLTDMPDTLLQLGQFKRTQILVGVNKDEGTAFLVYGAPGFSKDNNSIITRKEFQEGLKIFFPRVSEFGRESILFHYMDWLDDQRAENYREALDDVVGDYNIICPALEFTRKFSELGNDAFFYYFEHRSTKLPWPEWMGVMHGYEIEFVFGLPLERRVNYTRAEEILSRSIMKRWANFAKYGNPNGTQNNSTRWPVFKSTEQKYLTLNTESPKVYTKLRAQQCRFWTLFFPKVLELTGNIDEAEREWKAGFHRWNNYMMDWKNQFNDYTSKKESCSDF
Description: In vitro BChE inhibition, modified Ellman's method. It counts as biochemical. The note with it: for SI (index selectivity) = IC50 (AChE)/IC50 (BChE): higher value = higher selectivity to BChE.

T1 sequence (O42275 24-633): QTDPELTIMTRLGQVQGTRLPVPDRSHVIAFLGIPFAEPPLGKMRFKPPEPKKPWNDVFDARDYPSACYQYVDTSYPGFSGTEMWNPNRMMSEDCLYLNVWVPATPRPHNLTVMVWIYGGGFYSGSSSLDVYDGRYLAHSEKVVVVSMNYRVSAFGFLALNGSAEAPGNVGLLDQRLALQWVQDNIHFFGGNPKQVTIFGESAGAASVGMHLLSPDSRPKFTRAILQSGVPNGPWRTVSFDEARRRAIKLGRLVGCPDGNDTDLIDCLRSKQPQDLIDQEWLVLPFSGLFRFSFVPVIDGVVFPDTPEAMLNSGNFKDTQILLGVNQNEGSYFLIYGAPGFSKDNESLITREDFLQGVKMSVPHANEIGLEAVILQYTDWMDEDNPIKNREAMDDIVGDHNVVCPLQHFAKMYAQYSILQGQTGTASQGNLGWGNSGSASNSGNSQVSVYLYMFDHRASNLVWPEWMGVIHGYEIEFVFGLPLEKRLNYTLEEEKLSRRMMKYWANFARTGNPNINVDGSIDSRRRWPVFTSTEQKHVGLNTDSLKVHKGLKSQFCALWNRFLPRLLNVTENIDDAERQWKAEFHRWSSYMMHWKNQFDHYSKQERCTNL

On to `CC(C(=O)c1ccc2c(c1)OCO2)N(C)C(=O)OCc1ccccc1` (stereo not drawn) [Compound 34, Benzyl (1-(benzo[d][1,3]dioxol-5-yl)-1-oxopropan-2-yl)(methyl)carbamate], for which the IC50 at AChE from electric eel was 75.6 ± 1.25 µM. In addition, on BChE from equine serum, the IC50 was 51.9 ± 1.18 µM and the “SI (index selectivity) = IC50 (AChE)/IC50 (BChE)” value (“SI (index selectivity) = IC50” for short) was found to be 1.46.

Regarding `COC(=O)N(C)C(C)C(=O)c1cccc2ccccc12` (stereo not drawn) [Compound 35], the IC50 at AChE from electric eel worked out at 127 ± 1.74 µM. In addition, at BChE from equine serum, the IC50 turned out to be 150 ± 7.13 µM and the “SI (index selectivity) = IC50” value is 0.84.

Turning to `CC(C(=O)c1cccc2ccccc12)N(C)C(=O)Oc1ccccc1` (stereo not drawn) [Compound 36], the 50% inhibitory concentration (IC50) is 99.6 ± 5.88 µM on AChE from electric eel and 12.7 ± 0.19 µM at BChE from equine serum. Moreover, the “SI (index selectivity) = IC50” value on BChE from equine serum is 7.83.

As to `CC(C(=O)c1ccc(Cl)c2ccccc12)N(C)C(=O)Oc1ccccc1` (stereo not drawn) [Compound 37, Phenyl (1-(4-chloronaphthalen-1-yl)-1-oxopropan-2-yl)(methyl)carbamate], the half-inhibitory concentration (IC50) against AChE from electric eel turned out to be 30.6 ± 1.57 µM; on BChE from equine serum it was 13.5 ± 0.47 µM. Also, the “SI (index selectivity) = IC50” value at BChE from equine serum came out at 2.26.

`CC(C(=O)c1ccc(Br)c2ccccc12)N(C)C(=O)Oc1ccccc1` (stereo not drawn) [Compound 38, Phenyl (1-(4-bromonaphthalen-1-yl)-1-oxopropan-2-yl)(methyl)carbamate] gave an IC50 on AChE from electric eel of 61.7 ± 1.42 µM. Moreover, at BChE from equine serum, half-maximal inhibition (IC50) was put at 13 ± 0.28 µM and the “SI (index selectivity) = IC50” value is on record as 4.76.

At AChE from electric eel, `CC(C(=O)c1cccc2ccccc12)N(C)C(=O)OCc1ccccc1` (stereo not drawn) [Compound 39, Benzyl methyl(1-(naphthalen-1-yl)-1-oxopropan-2-yl)carbamate] came in with a concentration for half-maximal inhibition (IC50) of 105.2 ± 0.99 µM. On BChE from equine serum, the IC50 was 18.94 ± 0.18 µM and the “SI (index selectivity) = IC50” value was found to be 5.55.

Consider `CC(C(=O)c1ccc(Cl)c2ccccc12)N(C)C(=O)OCc1ccccc1` (stereo not drawn) [Compound 40, Benzyl (1-(4-chloronaphthalen-1-yl)-1-oxopropan-2-yl)(methyl)carbamate], for which half-maximal inhibition against AChE from electric eel (IC50) was put at 103.3 ± 0.41 µM. On BChE from equine serum, the IC50 was determined as 42.75 ± 0.31 µM and the “SI (index selectivity) = IC50” value was 2.42.

On to `CC(C(=O)c1ccc(Br)c2ccccc12)N(C)C(=O)OCc1ccccc1` (stereo not drawn) [Compound 41, Benzyl (1-(4-bromonaphthalen-1-yl)-1-oxopropan-2-yl)(methyl)carbamate], for which the figures for the concentration for half-maximal inhibition (IC50) against AChE from electric eel and at BChE from equine serum were 128.3 ± 0.88 µM and 236 ± 16.3 µM, respectively. On BChE from equine serum, the “SI (index selectivity) = IC50” value stood at 0.54.
